Reference: patent US9750698B2, “Controlled release compositions of agents that reduce circulating levels of platelets and methods therefor” (BioVascular, Inc., priority 2008, dated 2017)
Like-named read-outs stand apart in the source and are kept apart here.

Key:
[1] = Repeat-dose dose-escalation study of controlled release anagrelide: pharmacokinetics; format: in vivo, human; settings: for half-life / AUC0-inf / AUC / Cmax / Tmax / AUC0-t: human, plasma, oral; for AUC0-inf / AUC / Cmax / AUC0-t: dose-normalized to 0.2 mg; for AUC0-inf: read-out: AUC0-inf; for AUC: read-out: AUC0-τ; for Cmax: read-out: Cmax; for Tmax: median; for AUC0-t: read-out: AUC0-t
Description: A placebo-controlled, double-blind repeat-dose, dose-escalation, sequential cohort study was conducted to evaluate the pharmacokinetics and pharmacodynamics of a controlled release composition of anagrelide as described herein in healthy subjects. An objective of the study was to explore the dose-response relationship for effects on platelet counts of a low dose range of a composition of anagrelide as described herein in healthy subjects. Other objectives of the study included determining the time course of effect and recovery of a range of doses of the composition including anagrelide on platelet count, determining the effects of a range of doses of the anagrelide compositions on platelet aggregation (collagen and ADP as agonists), determining the single and repeat dose pharmacokinetics of the anagrelide composition, and exploring the safety and tolerability of the compositions given as single doses and repeatedly for up to 21 days.
Eligible subjects were treated as follows: • Subjects were admitted to the unit on day 1 in the morning after an overnight fast and remain in the unit until 4 hours after morning dosing on day 5. • Subjects received a single dose of controlled release composition including anagrelide (or matching placebo) on day 1 in the morning. • Subjects commenced repeat dosing twice a day with the controlled release anagrelide composition on the morning of day 3 and remained in the unit until 4 hours after morning dose on day 5. • Subjects continued repeat twice a day dosing with the controlled release anagrelide composition as outpatients. Dosing continued until the morning of day 23. • All morning doses were taken after an overnight fast of at least 8 hour. • All evening doses were taken at least 2 hour after food consumption. No food was to be consumed for at least 1 hour after any dose (4 hours for the morning doses on day 1 and day 23). • On day 6-day 21, blood was taken pre-dosing of the controlled release anagrelide composition for full blood count (FBC) and platelet count (every day), trough PK (day 7, day 10, day 13, day 16 and day 19) and clinical chemistry (day 13). • Subjects were readmitted to the unit on the morning of day 22 and remained there until day 25 so that the PK of the final dose of the controlled release composition containing anagrelide on day 23 could be followed for 48 hours. • Subjects returned to the clinic daily from day 26 to day 31 for FBC and platelet counts. • Subjects returned for a follow up visit 14-16 days after the last dose of the controlled release composition containing anagrelide. Study Population:
A controlled release composition of anagrelide as described above in Table 4 of Example 1 (composition 2 fast release with seal coat) was used in unit doses of 100 μg and 300 μg, administered orally.
In this protocol, 4 cohorts of 200 μg, 300 μg, 400 μg and 600 μg doses of the controlled release composition including anagrelide administered twice daily were studied.
Platelet count, collagen-induced platelet aggregation, ADP induced platelet aggregation, template bleeding time, AUC0-t, AUC0-∞, Cmax, Cmin, t1/2, λZ and tmax were determined.
The starting dose of 200 μg (as a single dose on day 1 and then twice a day for 21 days) was chosen as a dose unlikely to cause any clinically significant reduction in platelet counts in healthy subjects. This starting dose was chosen because identification of the lowest dose of the controlled release composition containing anagrelide producing any effect on platelet counts was of interest. In each subsequent cohort the dose was increased by […] twice a day with the objective of identifying the dose range that lowers platelet counts by 30-50%. With daily monitoring of platelet counts, this escalation was determined to allow identification of the effective dose range of the controlled release composition of anagrelide without placing the subjects at significant clinical risk.

cGMP PDE = settings: sonicated human platelets; read-out: IC50 for inhibition of cGMP PDE activity; cited from earlier work
cAMP PDE = settings: sonicated human platelets; read-out: IC50 for inhibition of cAMP PDE activity; cited from earlier work
CYP1A2 = CYP1A2 (Homo sapiens, UniProt P05177); settings: cited from earlier work
circulating platelets = settings: patients with essential thrombocythemia, immediate release form 3 mg/day, after approximately 10 days; cited from earlier work
[2] = 38 volunteers, single 1 mg dose of immediate release anagrelide (Agrylin); cited from earlier work
cultured megakaryocytes [3] = settings: cultured megakaryocytes; cited from earlier work
[4] = cited from earlier work
[5] = cited from earlier work; remark: listed apart in the source
cultured megakaryocytes [6] = test: In vitro studies of cultured megakaryocytes (TPO inhibition effects, megakaryocytopoiesis); format: cell-based; settings: at 310.55 g/mol
[7] = patients with ET or other myeloproliferative diseases; cited from earlier work
[8] = 0.2 mg, cohort 1 (0.2 mg), day 1
[9] = 0.2 mg, cohort 1 (0.2 mg), day 23
[10] = 0.3 mg, cohort 4 (0.3 mg), day 1
[11] = 0.3 mg, cohort 4 (0.3 mg), day 23
[12] = 0.4 mg, cohort 2 (0.4 mg), day 1
[13] = 0.4 mg, cohort 2 (0.4 mg), day 23
[14] = 0.6 mg, cohort 3 (0.6 mg), day 1
[15] = 14C labelled anagrelide in humans

Chain of CYP1A2 (P05177 whole entry): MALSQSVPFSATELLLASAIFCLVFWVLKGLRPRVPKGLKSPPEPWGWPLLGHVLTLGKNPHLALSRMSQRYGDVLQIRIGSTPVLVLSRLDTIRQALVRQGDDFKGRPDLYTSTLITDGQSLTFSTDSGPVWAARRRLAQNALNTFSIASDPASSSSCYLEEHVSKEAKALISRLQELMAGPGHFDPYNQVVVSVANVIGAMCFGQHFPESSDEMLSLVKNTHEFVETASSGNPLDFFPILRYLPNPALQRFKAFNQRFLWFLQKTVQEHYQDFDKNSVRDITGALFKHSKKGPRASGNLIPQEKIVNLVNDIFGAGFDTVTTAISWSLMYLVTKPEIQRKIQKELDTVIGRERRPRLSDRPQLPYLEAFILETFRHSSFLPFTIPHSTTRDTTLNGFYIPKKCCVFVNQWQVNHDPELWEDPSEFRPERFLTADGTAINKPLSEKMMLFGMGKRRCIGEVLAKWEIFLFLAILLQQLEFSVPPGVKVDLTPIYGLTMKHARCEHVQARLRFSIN

## O=C1CN2Cc3c(ccc(Cl)c3Cl)N=C2N1 [anagrelide, 6,7-dichloro-1,5-dihydroimidazo-[2,1-b]quinazolin-2(3H)-one]
[1]; cohort 1 (0.2 mg), day 1
  Kel: 0.1908 h⁻¹
  AUC0-t: 1.72 ng·h/mL
[1]; cohort 1 (0.2 mg), day 23
  Kel: 0.0871 h⁻¹
[1]; cohort 2 (0.4 mg), day 1
  Kel: 0.0426 h⁻¹
  AUC0-t: 1.66 ng·h/mL
[1]; cohort 2 (0.4 mg), day 23
  Kel: 0.0567 h⁻¹
[1]; cohort 3 (0.6 mg), day 1
  Kel: 0.0490 h⁻¹
  AUC0-t: 2.26 ng·h/mL
[1]; cohort 4 (0.3 mg), day 1
  Kel: 0.1685 h⁻¹
  AUC0-t: 1.82 ng·h/mL
[1]; cohort 4 (0.3 mg), day 23
  Kel: 0.0321 h⁻¹
[1]; [8]
  half-life: 22.9 h
  AUC0-inf: 2.45 ng·h/mL
  AUC: 1.75 ng·h/mL
  Cmax: 0.334 ng/mL
  Tmax: 4 h
[1]; [9]
  half-life: 34.3 h
  AUC0-inf: 3.25 ng·h/mL
  AUC: 2 ng·h/mL
  Cmax: 0.354 ng/mL
  Tmax: 3 h
[1]; [10]
  half-life: 14.3 h
  AUC0-inf: 2.24 ng·h/mL
  AUC: 1.63 ng·h/mL
  Cmax: 0.284 ng/mL
  Tmax: 3.61 h
[1]; [11]
  half-life: 21.6 h
  AUC0-inf: 2.1 ng·h/mL
  AUC: 1.87 ng·h/mL
  Cmax: 0.224 ng/mL
  Tmax: 2 h
[1]; [12]
  half-life: 56.1 h
  AUC0-inf: 3.48 ng·h/mL
  AUC: 1.48 ng·h/mL
  Cmax: 0.234 ng/mL
  Tmax: 3.51 h
[1]; [13]
  half-life: 15.1 h
  AUC0-inf: 3.28 ng·h/mL
  AUC: 2.26 ng·h/mL
  Cmax: 0.331 ng/mL
  Tmax: 3.02 h
[1]; [14]
  half-life: 19.5 h
  AUC0-inf: 2.74 ng·h/mL
  AUC: 1.96 ng·h/mL
  Cmax: 0.304 ng/mL
  Tmax: 4 h
cGMP PDE
  IC50: 34 µM
cAMP PDE
  IC50: 0.054 µM
CYP1A2
  Level of CYP1A2 inhibition relative to therapeutic exposure: about 900 fold
Circulating platelets
  Decrease in the number of circulating platelets: 30-50%
[2]
  AUC0-inf ± RSD (%): 11.1 ± 37.6 ng·h/mL
  Cmax ± RSD (%): 4.99 ± 74.4 ng/mL
  Tmax ± RSD (%): 1.3 ± 53.8 h
Cultured megakaryocytes [3]
  Concentrations at which TPO inhibition effects are seen: 0.01 to 5 µg/mL
[4]
  Solubility in diethyl ether or n-heptane: insoluble
  Solubility in dimethylsulfoxide and N,N-dimethylformamide: sparingly soluble
  Solubility in water: very slightly soluble
[5]; [15]
  Eliminated via the kidneys: > 70%
  Excreted in the feces: approximately 10%
[5]; commercially available instant release formulation
  Terminal half-life: 1.7 h
[5]; in vivo
  Drug-drug interactions with hydroxycarbamide or aspirin: No drug-drug interactions were identified
[5]; oral, marketed immediate release formulation
  Absorption in the gastrointestinal tract: about 70%
Cultured megakaryocytes [6]
  Concentrations at which TPO inhibition effects are seen (molar equivalent): 0.032 to 0.16 µM
[7]
  Observed half-life: about 1.7 h
  Share of all drug-related products in the plasma: less than 20%
